Earlier results on one compound are cited in patent publication US20140187635A1, “DICLOFENAC COMPOSITIONS” (THEMIS MEDICARE LIMITED, priority 2012, published 2014).

The test system of one data set is rabbit. The settings on record: intravenous.
The next data set concerns Dog. The settings on record: intravenous.
The test system of a further data set is rat. The settings on record: in vivo, iv.

Read-outs that look alike come from different tables or passages of the source.

`CCOCCOCCO` [Transcutol, diethylene glycol monoethyl ether]: the LD50 is 2500 µL/kg in the data set with rabbit; 3 mL/kg with Dog; 4000 mg/kg with rat; 2300 mg/kg in the data set on mouse (in vivo, ip); 4300 µL/kg in the data set on mouse (intravenous). Besides, in the data set on eyes: rabbit, the “eyes: rabbit” value is recorded as 500 mg. Moreover, the “LD50 (subcutaneous: mouse)” value in the data set with mouse (subcutaneous) was 5500 µL/kg.
